Laboratory results taken from paper PMC5341070, “Small molecule inhibitors block Gas6-inducible TAM activation and tumorigenicity” (Scientific Reports, 2017).
One block for each molecule: values may come before it.

Assays:
Test in all cases: biochemical
[1] = target: TIE2 (Homo sapiens, UniProt Q02763); parameters: gene TEK; KINOMEscan (DiscoverX) competition binding screen of 97 human kinases, percent of control at 10 uM
Experimental: (§1) The KINOMEscan profiling of the inhibitors were performed as per directions by the manufacturer (DiscoverX) against a panel of human protein kinases.

[2] = target: T1, MEK2 (Homo sapiens, UniProt P36507); parameters: KINOMEscan (DiscoverX) competition binding screen of 97 human kinases, percent of control at 10 uM
T1 construct: gene MAP2K2
Experimental: as §1

[3] = target: T2, p38-alpha (Homo sapiens, UniProt Q16539); parameters: KINOMEscan (DiscoverX) competition binding screen of 97 human kinases, percent of control at 10 uM
T2 construct: gene MAPK14
Experimental: as §1

[4] = target: T3, IKK-beta (Homo sapiens, UniProt O14920); parameters: KINOMEscan (DiscoverX) competition binding screen of 97 human kinases, percent of control at 10 uM
T3 construct: gene IKBKB
T3 sequence (O14920 whole entry): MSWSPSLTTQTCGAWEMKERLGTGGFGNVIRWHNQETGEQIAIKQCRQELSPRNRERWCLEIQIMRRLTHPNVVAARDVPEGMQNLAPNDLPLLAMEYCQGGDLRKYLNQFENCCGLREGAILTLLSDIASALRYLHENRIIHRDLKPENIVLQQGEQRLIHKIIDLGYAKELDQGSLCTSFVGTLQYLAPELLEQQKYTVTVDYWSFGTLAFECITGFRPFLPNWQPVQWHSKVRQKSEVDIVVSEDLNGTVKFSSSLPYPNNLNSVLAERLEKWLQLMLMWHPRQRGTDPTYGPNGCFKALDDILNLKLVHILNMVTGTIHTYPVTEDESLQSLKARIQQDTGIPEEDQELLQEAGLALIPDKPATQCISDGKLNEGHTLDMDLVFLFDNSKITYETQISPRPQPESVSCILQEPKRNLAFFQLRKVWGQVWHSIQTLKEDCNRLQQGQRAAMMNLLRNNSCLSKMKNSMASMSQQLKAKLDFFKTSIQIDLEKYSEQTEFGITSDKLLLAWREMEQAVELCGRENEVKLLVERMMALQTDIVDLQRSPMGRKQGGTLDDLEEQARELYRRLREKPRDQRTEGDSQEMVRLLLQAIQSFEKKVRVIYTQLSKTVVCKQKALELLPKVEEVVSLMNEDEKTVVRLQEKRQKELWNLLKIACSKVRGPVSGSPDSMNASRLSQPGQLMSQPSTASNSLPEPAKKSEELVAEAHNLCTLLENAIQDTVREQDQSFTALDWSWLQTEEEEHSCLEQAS
Experimental: as §1

[5] = target: PLK4 (Homo sapiens, UniProt O00444); parameters: KINOMEscan (DiscoverX) competition binding screen of 97 human kinases, percent of control at 10 uM
Experimental: as §1

[6] = target: TSSK1B (Homo sapiens, UniProt Q9BXA7); parameters: KINOMEscan (DiscoverX) competition binding screen of 97 human kinases, percent of control at 10 uM
Experimental: as §1

[7] = target: T4, DCAMKL1 (Homo sapiens, UniProt O15075); parameters: KINOMEscan (DiscoverX) competition binding screen of 97 human kinases, percent of control at 10 uM
T4 construct: gene DCLK1
T4 sequence (O15075 whole entry): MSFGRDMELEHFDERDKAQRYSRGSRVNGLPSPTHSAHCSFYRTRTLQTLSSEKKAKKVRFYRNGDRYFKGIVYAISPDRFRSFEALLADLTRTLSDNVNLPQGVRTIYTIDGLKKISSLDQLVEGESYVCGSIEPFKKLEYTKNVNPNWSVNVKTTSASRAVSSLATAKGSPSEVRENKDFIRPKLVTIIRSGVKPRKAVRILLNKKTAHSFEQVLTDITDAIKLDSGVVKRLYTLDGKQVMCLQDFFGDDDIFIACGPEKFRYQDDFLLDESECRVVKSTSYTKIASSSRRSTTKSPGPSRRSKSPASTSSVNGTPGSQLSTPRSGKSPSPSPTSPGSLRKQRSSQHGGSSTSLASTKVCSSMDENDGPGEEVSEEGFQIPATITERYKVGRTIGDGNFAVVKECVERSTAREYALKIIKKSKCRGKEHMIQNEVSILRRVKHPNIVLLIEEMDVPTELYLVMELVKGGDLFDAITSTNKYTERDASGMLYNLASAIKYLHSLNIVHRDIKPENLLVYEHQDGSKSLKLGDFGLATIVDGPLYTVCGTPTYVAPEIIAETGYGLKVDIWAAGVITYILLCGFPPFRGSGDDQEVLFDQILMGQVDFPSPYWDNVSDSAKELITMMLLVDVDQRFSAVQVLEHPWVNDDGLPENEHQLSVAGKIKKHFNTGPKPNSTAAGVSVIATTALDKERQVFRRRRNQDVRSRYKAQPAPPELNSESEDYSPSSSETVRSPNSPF
Experimental: as §1

[8] = target: CDK9 (Homo sapiens, UniProt P50750); parameters: KINOMEscan (DiscoverX) competition binding screen of 97 human kinases, percent of control at 10 uM
Experimental: as §1

[9] = target: T5, MLK1 (Homo sapiens, UniProt P80192); parameters: KINOMEscan (DiscoverX) competition binding screen of 97 human kinases, percent of control at 10 uM
T5 construct: gene MAP3K9
Experimental: as §1

[10] = target: T6, SNARK (Homo sapiens, UniProt Q9H093); parameters: KINOMEscan (DiscoverX) competition binding screen of 97 human kinases, percent of control at 10 uM
T6 construct: gene NUAK2
T6 sequence (Q9H093 whole entry): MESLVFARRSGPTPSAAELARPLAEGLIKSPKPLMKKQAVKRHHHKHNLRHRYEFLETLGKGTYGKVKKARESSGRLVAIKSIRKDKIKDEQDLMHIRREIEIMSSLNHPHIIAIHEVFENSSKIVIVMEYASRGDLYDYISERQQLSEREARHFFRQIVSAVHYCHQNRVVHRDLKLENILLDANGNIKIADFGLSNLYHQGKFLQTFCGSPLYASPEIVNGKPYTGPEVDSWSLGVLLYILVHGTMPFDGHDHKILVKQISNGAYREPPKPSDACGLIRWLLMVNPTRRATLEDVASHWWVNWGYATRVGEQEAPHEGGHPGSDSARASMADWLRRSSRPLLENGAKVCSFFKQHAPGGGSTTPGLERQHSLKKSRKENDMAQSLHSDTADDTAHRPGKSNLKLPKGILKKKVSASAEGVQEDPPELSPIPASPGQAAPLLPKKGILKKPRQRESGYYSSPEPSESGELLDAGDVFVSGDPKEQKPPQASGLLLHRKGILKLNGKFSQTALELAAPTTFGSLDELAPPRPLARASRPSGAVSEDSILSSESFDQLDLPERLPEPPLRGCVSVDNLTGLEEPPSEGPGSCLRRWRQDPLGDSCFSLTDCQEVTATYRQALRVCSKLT
Experimental: as §1

[11] = target: T7, JAK3(JH1domain-catalytic) (Homo sapiens, UniProt P52333); parameters: KINOMEscan (DiscoverX) competition binding screen of 97 human kinases, percent of control at 10 uM
T7 construct: JH1domain-catalytic
Experimental: as §1

[12] = target: SRC (Homo sapiens, UniProt P12931); parameters: KINOMEscan (DiscoverX) competition binding screen of 97 human kinases, percent of control at 10 uM
SRC, sequence (P12931 whole entry): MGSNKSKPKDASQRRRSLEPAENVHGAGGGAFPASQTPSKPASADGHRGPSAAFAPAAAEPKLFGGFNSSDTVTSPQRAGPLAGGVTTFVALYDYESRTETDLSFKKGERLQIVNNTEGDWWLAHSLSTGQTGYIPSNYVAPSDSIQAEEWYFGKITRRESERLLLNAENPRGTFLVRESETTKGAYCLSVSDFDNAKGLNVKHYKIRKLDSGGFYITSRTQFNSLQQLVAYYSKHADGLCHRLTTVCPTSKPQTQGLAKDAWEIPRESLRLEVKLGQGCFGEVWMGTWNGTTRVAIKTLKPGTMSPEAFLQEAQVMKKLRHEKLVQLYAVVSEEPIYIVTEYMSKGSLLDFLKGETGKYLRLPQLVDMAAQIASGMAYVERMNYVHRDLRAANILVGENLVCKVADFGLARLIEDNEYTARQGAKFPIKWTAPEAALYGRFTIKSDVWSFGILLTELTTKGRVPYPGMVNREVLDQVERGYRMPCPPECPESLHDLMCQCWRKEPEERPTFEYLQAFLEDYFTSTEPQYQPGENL
Experimental: as §1

[13] = target: MAPKAPK2 (Homo sapiens, UniProt P49137); parameters: KINOMEscan (DiscoverX) competition binding screen of 97 human kinases, percent of control at 10 uM
MAPKAPK2, sequence (P49137 whole entry): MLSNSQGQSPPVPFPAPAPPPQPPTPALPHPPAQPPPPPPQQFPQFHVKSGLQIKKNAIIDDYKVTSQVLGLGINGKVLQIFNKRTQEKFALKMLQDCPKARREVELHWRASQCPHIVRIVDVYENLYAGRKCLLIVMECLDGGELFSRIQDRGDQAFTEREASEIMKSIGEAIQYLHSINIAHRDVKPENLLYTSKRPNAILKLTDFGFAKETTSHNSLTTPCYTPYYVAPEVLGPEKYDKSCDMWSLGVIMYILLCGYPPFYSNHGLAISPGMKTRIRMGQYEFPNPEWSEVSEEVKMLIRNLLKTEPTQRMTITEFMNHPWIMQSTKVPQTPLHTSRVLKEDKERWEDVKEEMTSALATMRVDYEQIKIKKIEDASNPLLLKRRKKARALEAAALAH
Experimental: as §1

[14] = target: PDPK1 (Homo sapiens, UniProt O15530); parameters: KINOMEscan (DiscoverX) competition binding screen of 97 human kinases, percent of control at 10 uM
Experimental: as §1

[15] = target: T8, JAK2(JH1domain-catalytic) (Homo sapiens, UniProt O60674); parameters: KINOMEscan (DiscoverX) competition binding screen of 97 human kinases, percent of control at 10 uM
T8 construct: JH1domain-catalytic
Experimental: as §1

[16] = target: T9, ADCK3 (Homo sapiens, UniProt Q8NI60); parameters: KINOMEscan (DiscoverX) competition binding screen of 97 human kinases, percent of control at 10 uM
T9 construct: gene COQ8A
T9 sequence (Q8NI60 whole entry): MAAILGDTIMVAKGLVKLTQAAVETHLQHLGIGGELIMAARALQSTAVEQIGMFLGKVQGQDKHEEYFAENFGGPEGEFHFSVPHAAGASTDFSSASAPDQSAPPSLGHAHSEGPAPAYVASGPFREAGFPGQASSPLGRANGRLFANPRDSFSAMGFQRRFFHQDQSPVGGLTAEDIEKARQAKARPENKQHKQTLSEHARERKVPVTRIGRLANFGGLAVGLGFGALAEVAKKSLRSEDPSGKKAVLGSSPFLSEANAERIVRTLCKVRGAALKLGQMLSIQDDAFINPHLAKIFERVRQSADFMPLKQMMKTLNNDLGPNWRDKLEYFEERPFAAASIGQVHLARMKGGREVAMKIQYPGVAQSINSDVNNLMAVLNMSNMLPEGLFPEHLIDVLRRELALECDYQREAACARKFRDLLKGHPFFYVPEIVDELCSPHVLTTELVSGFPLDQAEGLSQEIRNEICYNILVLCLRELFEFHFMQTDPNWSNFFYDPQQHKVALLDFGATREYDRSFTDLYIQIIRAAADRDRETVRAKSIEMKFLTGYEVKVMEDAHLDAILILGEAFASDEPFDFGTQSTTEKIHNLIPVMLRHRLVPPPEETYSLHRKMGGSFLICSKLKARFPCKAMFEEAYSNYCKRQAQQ
Experimental: as §1

[17] = target: T10, FAK (Homo sapiens, UniProt Q05397); parameters: KINOMEscan (DiscoverX) competition binding screen of 97 human kinases, percent of control at 10 uM
T10 construct: gene PTK2
Experimental: as §1

[18] = target: BMPR2 (Homo sapiens, UniProt Q13873); parameters: KINOMEscan (DiscoverX) competition binding screen of 97 human kinases, percent of control at 10 uM
Experimental: as §1

[19] = target: CDK3 (Homo sapiens, UniProt Q00526); parameters: KINOMEscan (DiscoverX) competition binding screen of 97 human kinases, percent of control at 10 uM
CDK3, sequence (Q00526 whole entry): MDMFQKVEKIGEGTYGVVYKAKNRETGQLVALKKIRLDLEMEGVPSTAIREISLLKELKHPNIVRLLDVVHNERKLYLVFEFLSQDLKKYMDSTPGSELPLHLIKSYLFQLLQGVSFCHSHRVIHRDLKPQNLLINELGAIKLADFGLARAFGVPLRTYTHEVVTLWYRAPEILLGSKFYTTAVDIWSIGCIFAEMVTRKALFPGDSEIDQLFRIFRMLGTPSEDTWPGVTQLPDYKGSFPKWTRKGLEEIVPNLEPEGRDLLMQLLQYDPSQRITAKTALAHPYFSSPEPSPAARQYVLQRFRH
Experimental: as §1

[20] = target: BTK (Homo sapiens, UniProt Q06187); parameters: KINOMEscan (DiscoverX) competition binding screen of 97 human kinases, percent of control at 10 uM
BTK, sequence (Q06187 whole entry): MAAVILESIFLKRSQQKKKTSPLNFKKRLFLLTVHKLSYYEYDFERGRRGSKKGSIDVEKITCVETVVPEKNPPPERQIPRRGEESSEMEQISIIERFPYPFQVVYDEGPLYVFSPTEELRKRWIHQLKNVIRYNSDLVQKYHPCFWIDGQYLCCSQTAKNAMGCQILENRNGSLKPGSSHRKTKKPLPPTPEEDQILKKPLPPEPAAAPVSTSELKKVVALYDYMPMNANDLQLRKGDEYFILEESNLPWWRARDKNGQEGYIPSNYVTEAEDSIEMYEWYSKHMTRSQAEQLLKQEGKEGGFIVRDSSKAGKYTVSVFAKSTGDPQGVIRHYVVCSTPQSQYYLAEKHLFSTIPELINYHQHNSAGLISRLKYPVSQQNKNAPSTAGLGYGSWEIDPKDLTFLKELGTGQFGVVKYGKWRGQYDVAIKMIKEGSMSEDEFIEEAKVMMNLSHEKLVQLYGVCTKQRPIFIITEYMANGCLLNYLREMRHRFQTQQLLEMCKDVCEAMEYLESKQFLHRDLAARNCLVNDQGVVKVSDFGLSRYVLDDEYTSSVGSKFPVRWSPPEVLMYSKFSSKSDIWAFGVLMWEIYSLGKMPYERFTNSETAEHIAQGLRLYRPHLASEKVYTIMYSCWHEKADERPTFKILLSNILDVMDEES
Experimental: as §1

[21] = target: T11, TRKA (Homo sapiens, UniProt P04629); parameters: KINOMEscan (DiscoverX) competition binding screen of 97 human kinases, percent of control at 10 uM
T11 construct: gene NTRK1
Experimental: as §1

[22] = target: EGFR (Homo sapiens, UniProt P00533); parameters: KINOMEscan (DiscoverX) competition binding screen of 97 human kinases, percent of control at 10 uM
Experimental: as §1

[23] = target: VEGFR2 (Homo sapiens, UniProt P35968); parameters: gene KDR; KINOMEscan (DiscoverX) competition binding screen of 97 human kinases, percent of control at 10 uM
Experimental: as §1

[24] = read-out: R428 %Ctrl @ 10000nM, binding competition
[25] = binding competition, % of control, read-out: RU-301 %Ctrl @ 10000nM

- percent of control binding at 10 µM [1, 24]: 0.45%
- percent of control binding at 10 µM [2, 24]: 0.2%
- percent of control binding at 10 µM [3, 24]: 78%
- percent of control binding at 10 µM [4, 24]: 4.8%
- percent of control binding at 10 µM [5, 24]: 1.7%
- percent of control binding at 10 µM [6, 24]: 22%
- percent of control binding at 10 µM [7, 24]: 98%
- percent of control binding at 10 µM [8, 24]: 92%
- percent of control binding at 10 µM [9, 24]: 2.2%
- percent of control binding at 10 µM [10, 24]: 0.65%
- percent of control binding at 10 µM [11, 24]: 0.2%
- percent of control binding at 10 µM [12, 24]: 14%
- percent of control binding at 10 µM [13, 24]: 87%
- percent of control binding at 10 µM [14, 24]: 34%
- percent of control binding at 10 µM [15, 24]: 0%
- percent of control binding at 10 µM [16, 24]: 18%
- percent of control binding at 10 µM [17, 24]: 83%
- percent of control binding at 10 µM [18, 24]: 23%
- percent of control binding at 10 µM [19, 24]: 72%
- percent of control binding at 10 µM [20, 24]: 31%
- percent of control binding at 10 µM [21, 24]: 3.9%
- percent of control binding at 10 µM [22, 24]: 74%
- percent of control binding at 10 µM [23, 24]: 1%
Compound: Nc1nc(Nc2ccc3c(c2)CC[C@@H](N2CCCC2)CC3)nn1-c1cc2c(nn1)-c1ccccc1CCC2 [R428]

- remaining binding at 10 µM [1, 25]: 100%
- remaining binding at 10 µM [2, 25]: 71%
- remaining binding at 10 µM [3, 25]: 93%
- remaining binding at 10 µM [4, 25]: 100%
- remaining binding at 10 µM [5, 25]: 81%
- remaining binding at 10 µM [6, 25]: 78%
- remaining binding at 10 µM [7, 25]: 81%
- remaining binding at 10 µM [8, 25]: 95%
- remaining binding at 10 µM [9, 25]: 100%
- remaining binding at 10 µM [10, 25]: 100%
- remaining binding at 10 µM [11, 25]: 95%
- remaining binding at 10 µM [12, 25]: 96%
- remaining binding at 10 µM [13, 25]: 100%
- remaining binding at 10 µM [14, 25]: 99%
- remaining binding at 10 µM [15, 25]: 87%
- remaining binding at 10 µM [16, 25]: 76%
- remaining binding at 10 µM [17, 25]: 100%
- remaining binding at 10 µM [18, 25]: 78%
- remaining binding at 10 µM [19, 25]: 93%
- remaining binding at 10 µM [20, 25]: 100%
- remaining binding at 10 µM [21, 25]: 100%
- remaining binding at 10 µM [22, 25]: 100%
- remaining binding at 10 µM [23, 25]: 99%
Compound: Cc1cc(CSc2ccccc2C(=O)NCCNc2ccc(C(F)(F)F)cc2[N+](=O)[O-])on1 [RU-301]
